{"source": "patent US20200079786A1", "about": "“ANALOGS OF […] AS SOLUBLE EPOXIDE HYDROLASE INHIBITORS” (UNIVERSITAT DE BARCELONA, priority 2015, published 2020)", "key": {"[1]": {"assay": "Parallel artificial membrane permeation assay for blood-brain barrier (PAMPA-BBB)", "type": "in vitro ADME, porcine", "conditions": "PBS:EtOH (70:30)", "experimental": "The in vitro permeability (Pe) of the test compounds through lipid extract of porcine brain membrane was determined. Assayed compounds were tested using a mixture of PBS:EtOH (70:30). […] From this equation and taking into account the limits established by Di et al. for BBB permeation, the ranges of permeability were established, as follows."}, "recombinant human sEH": {"molecular_target": "T1, recombinant human sEH (Homo sapiens, UniProt P34913)", "T1 construct": "purchased Cayman Chemical 10011669", "T1 sequence (P34913 1-555)": "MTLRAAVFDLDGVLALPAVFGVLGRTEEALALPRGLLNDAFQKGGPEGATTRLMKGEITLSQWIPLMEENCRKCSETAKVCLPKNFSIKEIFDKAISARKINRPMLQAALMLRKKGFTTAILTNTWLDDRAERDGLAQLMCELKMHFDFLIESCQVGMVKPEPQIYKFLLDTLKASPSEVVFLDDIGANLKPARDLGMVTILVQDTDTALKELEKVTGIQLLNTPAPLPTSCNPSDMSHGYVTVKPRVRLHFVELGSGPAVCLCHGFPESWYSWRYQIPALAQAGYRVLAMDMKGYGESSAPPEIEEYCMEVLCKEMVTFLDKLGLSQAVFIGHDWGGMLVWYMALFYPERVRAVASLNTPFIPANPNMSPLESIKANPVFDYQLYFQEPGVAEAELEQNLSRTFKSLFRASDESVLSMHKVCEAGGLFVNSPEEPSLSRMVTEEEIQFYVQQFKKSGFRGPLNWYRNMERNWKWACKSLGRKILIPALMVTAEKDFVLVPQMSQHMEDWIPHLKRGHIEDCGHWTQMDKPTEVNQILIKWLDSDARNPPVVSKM", "assay": "In vitro determination of sEH inhibition activity (fluorescent assay, PHOME substrate)", "type": "biochemical", "conditions": "mean ± Standard Error, min. three replicates, read-out: IC50 (nM) ± SE, sEH inhibition activity", "experimental": "3-(Phenyl-oxiranyl)-acetic acid cyano-(6-methoxy-naphthalen-2-yl)-methyl ester (PHOME; from Cayman Chemical, item number 10009134; CAS 1028430-42-3); cf. N. M. Wolf et al., Anal. Biochem. 2006, vol. 355, pp. 71-80.\nSolutions: • Assay buffer: Bis/Tris HCl 25 mM pH 7.0 containing 0.1 mg/mL of bovine serum albumin (BSA). • PHOME at 200 μM in DMSO. • Solution of recombinant human sEH (Cayman Chemical, item number 10011669), diluted with assay buffer. • Inhibitors dissolved in DMSO at appropriated concentrations.\nIn a black 96-well plate (Greiner Bio-One, item number 655900), fill the background wells with 90 μL and the positive control and inhibitor wells with 85 μL of assay buffer. Add 5 μL of DMSO to background and positive control wells, and then add 5 μL of inhibitor solution in inhibitor wells. Add 5 μL of the solution of hsEH to the positive control and inhibitor wells and mix several time. Prepare a 1/21 dilution of the solution of PHOME with assay buffer according to final volume required, and then add 105 μL of each well. Shake carefully the plate for 10 seconds and incubate for 5 minutes at room temperature. […] Results were obtained by regression analysis from at least three data points in a linear region of the curve. IC50 values are average of minimum three independent replicates."}, "sEH in AR42j cells": {"molecular_target": "T2, sEH in AR42j cells (Rattus norvegicus, UniProt P80299)", "T2 sequence (P80299 1-554)": "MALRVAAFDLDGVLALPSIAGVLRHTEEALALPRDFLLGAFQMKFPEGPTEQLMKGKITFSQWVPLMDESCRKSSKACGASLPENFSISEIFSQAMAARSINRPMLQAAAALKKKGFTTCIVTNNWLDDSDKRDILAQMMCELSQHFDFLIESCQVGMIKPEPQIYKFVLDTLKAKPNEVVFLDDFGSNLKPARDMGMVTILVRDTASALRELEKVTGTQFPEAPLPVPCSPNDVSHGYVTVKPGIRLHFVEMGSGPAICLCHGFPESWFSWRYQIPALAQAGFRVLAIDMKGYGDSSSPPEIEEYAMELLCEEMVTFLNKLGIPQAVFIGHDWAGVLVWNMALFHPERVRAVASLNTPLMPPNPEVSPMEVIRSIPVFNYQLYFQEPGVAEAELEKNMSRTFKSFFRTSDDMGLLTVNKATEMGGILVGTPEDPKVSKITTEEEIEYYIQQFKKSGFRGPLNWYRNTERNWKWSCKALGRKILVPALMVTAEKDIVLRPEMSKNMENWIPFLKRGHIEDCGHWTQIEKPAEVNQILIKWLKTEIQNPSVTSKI", "assay": "In vitro determination of sEH inhibition activity in AR42j cells (cell-based fluorescent assay)", "conditions": "AR-42J, read-out: % Inhn. ± SE (100 μM), sEH inhibition activity in cell culture", "method": "Solutions Preparation: • Assay buffer 1×: add 10 mL of the CBA-Buffer (10×) to 90 mL of distilled water. • Lysis Buffer: add 50 μL of the CBA Digitonin Solution to 10 mL of Buffer Assay 1×. • Substrate Solution: dilute 10 μL of CBA sEH Substrate with 10 mL of Assay Buffer 1×. • Standards: preparation of 7 concentrations of CBA 6-methoxy-2-naphtalaldehyde from 0 until 2 M with Assay Buffer 1×. • sEH Positive Control: Prepare another stock A (1 μg/ml: 1 μL CBA sEH Positive Control+1 mL Assay Buffer 1×). From the already prepared stock A, prepare 250 μL of sEH (10 ng/mL): 2.5 μL sEH stock A+250 μL Assay Buffer 1×). • sEH Inhibitor AUDA: dilute 10 μL CBA sEH Inhibitor with 500 ml Assay Buffer 1×. • Inhibitors dissolved in DMSO at appropriated concentrations.\nSeed cells in a 96-well plate at a density of (2×10^4)-(5×10^4) cells/well in 100 μL of culture medium with or without compounds to be tested. Incubation of the cells in a CO2 incubator at 37° C. for 48 hours. Aspirate the culture medium and add 200 μL of Assay Buffer 1× to each well. Centrifuge the plate at 800 rmp for 5 minutes. Aspirate the supernatant and add 100 μL of Lysis Buffer to each well. Incubate with gentle shaking on an orbital shaker for 30 minutes at room temperature. Centrifuge the plate at 3000 rpm for 20 minutes at 4° C. Transfer 90 μL of the supernatants to the 96-Well Solid Plate (black). Add 10 μL Assay Buffer 1× or 10 μL of the AUDA solution to appropriate wells. For positive control wells, add 100 μL of the 10 ng/mL sEH Positive Control to two wells. Add 200 μL of 6-methoxy-2-Naphthaldehyde Standards to corresponding wells of the black plate. Add 100 μL of the sEH Substrate Solution to each well, except the standards. Incubate the plate at 37° C. for 30 minutes. […] The intensity of fluorescence was used to analyze and calculate inhibition percentages, shown in the Table as average of minimum three independent replicates."}, "[2]": {"assay": "Determination of cytotoxicity in THLE-2 cells (ATP viability)", "type": "cell-based", "conditions": "human; THLE-2 cells, 72 h exposure, 0-100 μM; read-out: LC50 (μM), cytotoxicity", "experimental": "Cytotoxic effects of assayed compounds were tested using the immortalized human liver cell line THLE-2 (ATCC CRL-2706). Cells were cultured in BEGM medium (Clonetics # CC-4175) containing all the supplements kit except additional EGF and G418. Medium was completed by adding 0.7 μg/mL phosphoethanolamine, 0.5 ng/mL epidermal growth factor, antibiotics (penicillin and streptomycin) and 10% fetal bovine serum (FBS).\nCells were plated in 96-well black microplates at 10,000 cells/well density and were incubated at 37° C. (5% CO2, 95% humidity) for 24 h to allow the cells to adhere and form a monolayer. Test compounds were solubilized in 100% DMSO at a concentration curve way and then diluted with cell culture medium containing 10% DMSO. The final concentrations of the test compounds (1% DMSO) ranged from 0-100 μM in a final volume of 200 μL. Microplates were maintained at 37° C. (5% CO2, 95% humidity) during 3 days. Following this 72 h exposure to test compounds, cell viability in each well was determined by measuring the concentration of cellular adenosine triphosphate (ATP) using the ATP1Step Kit as described by the manufacturer (Perkin-Elmer). In a typical procedure, 50 μL of cell reagent is added to all wells of each test plate followed by incubation for 10 min at room temperature on an orbital shaker. ATP concentration was determined by reading chemical luminescence using the Envision plate reader (PerkinElmer). The percentage of viable cells relative to the non-drug treated controls was determined for each well and LC50 values were calculated as concentrations projected to kill 50% of the cells following a 72 h exposure, an average of minimum two independent replicates."}}}
{"smiles": "O=C(N[C@]12CC3C[C@@H](C[C@H](C3)O1)C2)N[C@H]1CC[C@H](Oc2ccc(C(=O)O)cc2)CC1", "note": "[Ig, trans-1-(2-oxaadamantan-1-yl)-3-[4-(4-carboxyphenoxy)cyclohexyl]urea]", "values": [{"measurement": "CNS prediction", "setting": "[1]", "result": "CNS+ (Compounds of high BBB permeation (CNS+): Pe (10^6 cm s^−1)>5.181)"}, {"measurement": "IC50", "setting": "recombinant human sEH", "result": "13.4 ± 4", "unit": "nM"}, {"measurement": "inhibition at 100 µM", "setting": "sEH in AR42j cells", "result": "58.3 ± 3.2", "unit": "%"}, {"measurement": "CC50 at 72 h", "setting": "[2]", "result": "> 100", "unit": "µM"}]}
